Measurements from patent US7323188B2 (priority 1997, dated 2008).
Several values for one entry are separate records, joined by “and”; a condition that tells them apart may be missing. Equal values may be shown once. Read-outs that look alike come from different tables or passages of the source.

Legend:
Conditions in all cases: in vivo
[1] = system: downy mildew (Pseudoperonospora cubensis)
[2] = system: downy mildew (Pseudoperonospora cubensis); remark: listed apart in the source
[3] = system: late blight (Phytophthora infestans)
[4] = system: downy mildew (Pseudoperonospora cubensis); remark: listed apart in the source
[5] = system: late blight (Phytophthora infestans); remark: listed apart in the source
[6] = system: downy mildew (Pseudoperonospora cubensis); remark: listed apart in the source
[7] = system: downy mildew (Pseudoperonospora cubensis); remark: listed apart in the source

| SMILES | Incidence rate [4] | Incidence rate [6] | Incidence rate [7] | further results |
| --- | --- | --- | --- | --- |
| Cc1ccc(-c2c(Cl)nc(C#N)n2S(=O)(=O)N(C)C)cc1 [Compound No. 1, 4-chloro-2-cyano-1-dimethylsulfamoyl-5-(4-methylphenyl)imidazole] | 85% and 90% |  |  | Lesion-free Area Ratio [1]: 65%; Incidence rate [2]: 87% and 95%; Incidence rate [3]: 47% and 50% and 31% and 37% |
| CCNC(=O)NC(=O)C(C#N)=NOC [Cymoxanil, 1-(2-cyano-2-methoxyiminoacetyl)-3-ethylurea] |  |  |  | Incidence rate [5]: 100% |
| CO/N=C(/C(=O)OC)c1ccccc1COc1ccccc1C [Compound (b), methyl (E)-methoxyimino[α-(o-tolyloxy)-O-tolyl]acetate] |  | 100% |  |  |
| OP(O)O [H2(PO3H), phosphorous acid] | 75% |  | 75% |  |
| O=P([O-])([O-])O.[K+].[K+] [K2HPO4, dipotassium hydrogenphosphate] | 95% |  | 95% |  |
| COCC(=O)N(c1c(C)cccc1C)C(C)C(=O)OC (racemic) [Metalaxyl, methyl N-(2-methoxyacetyl)-N-(2,6-xylyl)-DL-alaninate] |  | 60% and 100% |  |  |
| COc1ccc(C(=CC(=O)N2CCOCC2)c2ccc(Cl)cc2)cc1OC [Dimethomorph, (E,Z)-4-[(3-(4-chlorophenyl)-3-(3,4-dimethoxyphenyl)acryloyl]morpholine] |  | 50% and 60% |  | Incidence rate [5]: 85% and 100% |
| CO/C=C(/C(=O)OC)c1ccccc1Oc1cc(Oc2ccccc2C#N)ncn1 [Compound (a), methyl (E)-2-{2-[6-(2-cyanophenoxy)pyrimidin-4-yloxy]phenyl}-3-methoxyacrylate] |  |  |  | Theoretical incidence rate (Colby's formula) [6]: 100 (100) % |
| O=P([O-])([O-])O.[Na+].[Na+] [Na2HPO4, disodium hydrogenphosphate] | 100% |  | 100% |  |
